Source: patent US20250041227A1, “TABLET FORMULATIONS OF RBP4 INHIBITORS AND METHODS OF USE” (BELITE BIO, INC, priority 2021, published 2025)

Test system: male cynomolgus monkeys
Experiment: In-life clinical observations (tolerability)
Type: in vivo
Conditions: single PO 5 mg/animal per phase, 6 phases
Text: The test system and study design were as follows. A total of 4 male non-naïve cynomolgus monkeys were assigned to the study (age: >2 years old and body weight: 2.5-4 kg). Each animal received a single dose of capsule or tablet at the start of each phase and there were 6 phases in total. The same animals, Animal Nos. C1001, C1002, C1003 and C1004, were used for each phase with a minimum 5-day washout period between dosing for each phase, except for Animal No. C1002, Animal Tattoo No. C1708339, which was replaced by another non-naïve cynomolgus monkey, Animal Tattoo No. C1703319, due to dosing failure that happened in Phase 3. As a result, Animal Tattoo No. C1708339 was used in Phase 1 and 2, Animal Tattoo No. C1703319 was used in Phases 3 to 6. All animals were fasted overnight prior to dosing, food was returned at 4 hours post-dose.
Animals were physically examined prior to study initiation to confirm their health. Clinical observations were performed twice daily (approximately 9:30 a.m. and 4:00 p.m.). Cage-side observations for general health and appearance were also performed. On dosing day, animals were also observed before and after each sample collection time point. General condition, behavior, activity, excretion, respiration or other unusual observations noted throughout the study were recorded.

`CC(=O)N1CCc2c(C(=O)N3CCC(c4ccc(F)c(F)c4C(F)(F)F)CC3)n[nH]c2C1` [Compound 1, 1-(3-(4-(3,4-difluoro-2-(trifluoromethyl)phenyl)piperidine-1-carbonyl)-1,4,5,7-tetrahydro-6H-pyrazolo[3,4-c]pyridin-6-yl)ethan-1-one] was tested, and the “adverse effects during the in-life phase” value was “No adverse effects were observed”.
